Key:
[1] = system: production of β-amyloid protein (Aβ) by E35 cells (human glioma H4 cells transfected with APP751 gene); assay: Screening system using cells: inhibition of production/secretion of β-amyloid protein (Aβ sandwich ELISA of culture supernatant); format: cell-based; conditions: 24 hours with compound, Aβ in supernatant by ELISA, read-out: Activity (EC50, concentration at which production of Aβ is inhibited by 50%)
Description: Inhibitory activity of compounds against production of β-amyloid protein was measured by quantitative determination of the amount of β-amyloid protein (Aβ) secreted into the culture medium by sandwich enzyme-linked immunosorbent assay (ELISA) method, using E35 cells prepared by transfecting APP751 gene, which is a human wild type β-amyloid protein precursor protein gene, into human glioma cells (H4 cells).
That is, E35 cells were inoculated into a 96-well plate followed by cultivation in an incubator equilibrated with 5% carbon dioxide at 37° C., using Dulbecco's Modified Eagle's Medium supplemented with inactivated 10% fetal bovine serum as the medium. Test compounds dissolved in DMSO solution were added 24 hours after inoculation. Test compounds in DMSO solution were prepared to have a 2000-fold concentration of the final concentration, so that the DMSO concentration in the medium becomes 0.05%. After further cultivation for 24 hours, supernatant was collected, and was added to a 96-well plate for ELISA fixed with monoclonal antibody 25-1 against Aβ. Incubation was carried out at 4° C. for 16-20 hours. The plate was washed with phosphate buffer (pH 7.4), followed by addition of biotinylated monoclonal antibody MA32-40 against Aβ, and the plate was allowed to stand at 4° C. for 2 hours. After the plate was washed with phosphate buffer again, streptavidin conjugated alkaline phosphatase was added. Biotin was allowed to conjugate with streptavidin, and then the plate was washed with phosphate buffer. Blue Phos (KPL Inc.) was added to the plate, and then after incubation for an appropriate period of time, absorbance was measured for each of the wells. The amount of Aβ contained in the supernatant of conditioned medium was obtained from a calibration curve which was prepared separately. The concentration at which production of Aβ is inhibited by 50% (EC50), when compared with the control cells without the addition of the compound, was calculated. Here, 25-1 antibody and MA32-40 antibody used in ELISA are mouse monoclonal antibodies derived from hybridoma cell clone cell lines, which specifically recognize each antigen which was prepared and selected in accordance with a standard method by using Aβ25-35 and Aβ1-8 as antigens, respectively.
Results for the evaluation made by the aforementioned assay with respect to compound (I) of the present invention are shown in Table 1. Notation of ++++ is provided when EC50 is 5 nM or lower, +++ when 5-50 nM, and ++ when 50-500 nM.

Row | melting point | SMILES | EC50 [1] [µM]
1 | 203 to 204 °C | Cc1cc(C(=O)N(C)C)ncc1C(c1c(F)ccc(F)c1F)S(=O)(=O)CCC(F)(F)F (stereo not drawn) | –
2 | 170 to 172 °C | Cc1cc(C(N)=O)ncc1C(c1c(F)ccc(F)c1F)S(=O)(=O)CCC(F)=C(F)F (stereo not drawn) | –
3 | 160 to 161 °C | Cc1cc(C(N)=O)ncc1C(c1c(F)ccc(F)c1F)S(=O)(=O)CC(F)(F)C(F)F (stereo not drawn) | –
4 | 201 to 203 °C | Cc1cc(C(N)=O)ncc1C(c1c(F)ccc(F)c1F)S(=O)(=O)CCCC(F)(F)F (stereo not drawn) | –
5 | 194 to 196 °C | Cc1cc(C(N)=O)ncc1C(c1c(F)ccc(F)c1F)S(=O)(=O)CCCF (stereo not drawn) | –
6 | 194 to 196 °C | Cc1cc(C(N)=O)ncc1C(c1c(F)ccc(F)c1F)S(=O)(=O)CC(C(F)(F)F)C(F)(F)F (stereo not drawn) | –
7 | 85 to 87 °C | Cc1cc(C(=O)O)ncc1C(c1c(F)ccc(F)c1F)S(=O)(=O)CCC(F)(F)F (stereo not drawn) | –
8 | 146 to 147 °C | Cc1cc(C(=O)NCCO)ncc1C(c1c(F)ccc(F)c1F)S(=O)(=O)CCC(F)(F)F (stereo not drawn) | –
9 | 202 to 204 °C | CCCS(=O)(=O)C(c1cnc(C(N)=O)cc1C)c1c(F)ccc(F)c1F (stereo not drawn) | –
10 | 126 to 128 °C | Cc1cc(C(=O)NCO)ncc1C(c1c(F)ccc(F)c1F)S(=O)(=O)CCC(F)(F)C(F)(F)F (stereo not drawn) | –
11 | 143 to 144 °C | Cc1cc(C(N)=O)ncc1C(c1c(F)ccc(F)c1F)S(=O)(=O)CCC(C)(C)C (stereo not drawn) | –
12 | 191.5 to 192 °C | Cc1cc(C(N)=O)ncc1C(c1c(F)ccc(F)c1F)S(=O)(=O)CCC(F)F (stereo not drawn) | –
13 | 161 to 161.5 °C | Cc1cc(C(=O)NCO)ncc1C(c1c(F)ccc(F)c1F)S(=O)(=O)CCC(C)(F)F (stereo not drawn) | –

More lines, now with the values behind:

Row | SMILES | melting point | EC50 [1] [µM]
14 | Cc1cc(C(N)=O)ncc1C(c1c(F)ccc(F)c1F)S(=O)(=O)CCC(Cl)(Cl)Cl (stereo not drawn) [Example 18, 4-Methyl-5-[[(3,3,3-trichloropropyl)sulfonyl](2,3,6-trifluorophenyl)methyl]pyridine-2-carboxamide] | 173 to 175 °C | 0.05 to 0.5
15 | NC(=O)c1cc(C(c2c(F)ccc(F)c2F)S(=O)(=O)CCC(F)(F)F)c(Cl)cn1 (stereo not drawn) [Example 45, 5-Chloro-4-[(2,3,6-trifluorophenyl)[(3,3,3-trifluoropropyl)sulfonyl]methyl]pyridine-2-carboxamide] | 237 to 239 °C | 0.05 to 0.5
16 | Cc1cc(C(N)=O)ncc1C(c1c(F)ccc(F)c1F)S(=O)(=O)CCC(F)(F)C(F)(F)F (stereo not drawn) [Example 19, 4-Methyl-5-[[(3,3,4,4,4-pentafluorobutyl)sulfonyl](2,3,6-trifluorophenyl)methyl]pyridine-2-carboxamide] | 155 to 156 °C | 0.005 to 0.05
17 | Cc1cc(C(N)=O)ncc1C(c1c(F)ccc(F)c1F)S(=O)(=O)CC1CC1 (stereo not drawn) | 222 to 223 °C | –
18 | Cc1cc(C(N)=O)ncc1C(c1c(F)ccc(F)c1F)S(=O)(=O)CC=C(F)F (stereo not drawn) [Example 37, 5-[[(3,3-Difluoroprop-2-en-1-yl)sulfonyl](2,3,6-trifluorophenyl)methyl]-4-methylpyridine-2-carboxamide] | 171 to 172 °C | 0.05 to 0.5
19 | Cc1cc(C(N)=O)ncc1C(c1c(F)ccc(F)c1F)S(=O)(=O)CC1CC(F)(F)C1 (stereo not drawn) | 205 to 207 °C | –
20 | CCCCS(=O)(=O)C(c1cnc(C(N)=O)cc1C)c1c(F)ccc(F)c1F (stereo not drawn) [Example 15, 5-[(Butylsulfonyl)(2,3,6-trifluorophyenyl)methyl]-4-methylpyridine-2-carboxamide] | 203 to 204 °C | 0.05 to 0.5
21 | Cc1cc(C(N)=O)ncc1C(c1c(F)ccc(F)c1F)S(=O)(=O)CC(C)C (stereo not drawn) | 240 to 241 °C | –
22 | Cc1cc(C(=O)NCO)ncc1C(c1c(F)ccc(F)c1F)S(=O)(=O)CCC(F)(F)Cl (stereo not drawn) [Example 35, 5-[[(3-Chloro-3,3-difluoropropyl)sulfonyl](2,3,6-trifluorophenyl)methyl]-N-(hydroxymethyl)-4-methylpyridine-2-carboxamide] | 150 to 152 °C | 0.005 to 0.05
23 | O=c1cc(O)nc2cc(C(c3c(F)ccc(F)c3F)S(=O)(=O)CCC(F)(F)F)c(Cl)cn12 (stereo not drawn) [Example 49, 7-Chloro-2-hydroxy-8-[(2,3,6-trifluorophenyl)[(3,3,3-trifluoropropyl)sulfonyl]methyl]-4H-pyrido[1,2-a]pyrimidin-4-one] | 264 °C (dec.) | 0.005 to 0.05
24 | Cc1cc(C(N)=O)ncc1C(c1c(F)ccc(F)c1F)S(=O)(=O)CCC(F)(F)F (stereo not drawn) [Example 3, 4-Methyl-5-[(2,3,6-trifluorophenyl)[(3,3,3-trifluoropropyl)sulfonyl]methyl]pyridine-2-carboxamide] | 190 to 191 °C | 0.05 to 0.5
25 | Cc1cc(C(=O)NCO)ncc1C(c1c(F)ccc(F)c1F)S(=O)(=O)CCC(F)(F)F (stereo not drawn) [Example 4, N-(Hydroxymethyl)-4-methyl-5-[(2,3,6-trifluorophenyl)[(3,3,3-trifluoropropyl)sulfonyl]methyl]pyridine-2-carboxamide] | 146 to 148 °C | 0.005 to 0.05
26 | Cc1cc(C(N)=O)ncc1C(c1c(F)ccc(F)c1F)S(=O)(=O)CCC(F)(F)Cl (stereo not drawn) [Example 34, 5-[[(3-Chloro-3,3-difluoropropyl)sulfonyl](2,3,6-trifluorophenyl)methyl]-4-methylpyridine-2-carboxamide] | 181 to 183 °C | 0.005 to 0.05
27 | Cc1cc(C(N)=O)ncc1C(c1c(F)ccc(F)c1F)S(=O)(=O)CCC(C)(F)F (stereo not drawn) [Example 10, 5-[[(3,3-Difluorobutyl)sulfonyl](2,3,6-trifluorophenyl)methyl]-4-methylpyridine-2-carboxamide] | 165 to 166 °C | 0.05 to 0.5
28 | Cc1cc(C(N)=O)ncc1C(c1c(F)ccc(F)c1F)S(=O)(=O)CC1CCC1 (stereo not drawn) | 214 to 215 °C | –
29 | O=c1[nH]nc2cc(C(c3c(F)ccc(F)c3F)S(=O)(=O)CCC(F)(F)F)c(Cl)cn12 (stereo not drawn) [Example 54, 6-Chloro-7-[(2,3,6-trifluorophenyl)[(3,3,3-trifluoropropyl)sulfonyl]methyl][1,2,4]triazolo[4,3-a]pyridin-3(2H)-one] | 209 to 211 °C | 0.005 to 0.05
30 | Cc1cc(C(N)=O)ncc1C(c1c(F)ccc(F)c1F)S(=O)(=O)CCCCl (stereo not drawn) [Example 30, 5-[[(3-Chloropropyl)sulfonyl](2,3,6-trifluorophenyl)methyl]-4-methylpyridine-2-carboxamide] | 197 to 199 °C | 0.05 to 0.5
31 | Nc1cc(C(c2c(F)ccc(F)c2F)S(=O)(=O)CCC(F)(F)F)c(Cl)cn1 (stereo not drawn) [Example 48, 5-Chloro-4-[(2,3,6-trifluorophenyl)[(3,3,3-trifluoropropyl)sulfonyl]methyl]pyridin-2-amine] | 155 to 159 °C | 0.005 to 0.05
32 | Cc1cc(C(N)=O)ncc1C(SCCC=C(F)F)c1c(F)ccc(F)c1F (stereo not drawn) | 97 to 98 °C | –
33 | Nc1cc(=O)n2cc(Cl)c(C(c3c(F)ccc(F)c3F)S(=O)(=O)CCC(F)(F)F)cc2n1 (stereo not drawn) [Example 51, 2-Amino-7-chloro-8-[(2,3,6-trifluorophenyl)[(3,3,3-trifluoropropyl)sulfonyl]methyl]-4H-pyrido[1,2-a]pyrimidin-4-one] | 247 °C (dec.) | ≤ 0.005

Source: patent US20100168136A1, “ALKYLSULFONE DERIVATIVES” (DAIICHI SANKYO COMPANY, LIMITED, priority 2007, published 2010)
